{"source": "patent EP3685668B1", "about": "“COMPOSITION COMPRISING ACIBENZOLAR-S-METHYL AS EFFECTIVE INGREDIENT FOR CONTROLLING BURSAPHELENCHUS XYLOPHILUS DISEASE AND METHOD FOR CONTROLLING BURSAPHELENCHUS XYLOPHILUS USING SAME” (Industry Foundation of Chonnam National University, priority 2017, dated 2019)", "key": {"PR_1b family": {"tested_on": "PR_1b family", "assay": "qRT-PCR expression of induced resistance gene in pine tree callus", "format": "cell-based", "settings": "concentration series"}, "[1]": {"tested_on": "Bursaphelenchus xylophilus", "assay": "Control efficacy against pine wilt disease by trunk injection, foliar spraying or soil drenching, greenhouse, red pine trees", "format": "in vivo", "settings": "red pine tree, observed for 80 days", "experimental": "The control efficacy of acibenzolar-S-methyl, which shown to have the highest activity in Example 1, was determined by three different treatment methods, i.e., trunk injection, foliar spraying, and soil drenching. For in vivo pathogenesis test, 2-year old young red pine trees (diameter of 5.5 mm or so, and height of about 35 mm) were used like Example 2.\nFor the trunk injection, a borehole was created at an angle of 45° by using an electric drill with thickness of 1.5 mm on a pine stem part that is 5 to 10 cm above the soil surface, a tip (200 µℓ) was inserted to the hole, and the working solution of chemicals was injected in an amount of 100 µℓ per pine tree after dissolving acibenzolar-S-methyl at concentration of 0.2 or 10 mg/mℓ in an aqueous solution containing 10% acetone and 10% methanol. After the treatment, the end part of the tip was sealed with parafilm, and a small hole was created thereon as an airflow hole. For the foliar spraying, a pre-treatment with Tween 20 (250 µg/mℓ) was carried out at 5 mℓ per pine tree to help the adsorption of the chemical on pine leaves, followed by drying for 2 hours. After drying, acibenzolar-S-methyl was dissolved at concentration of 1.6 mg/mℓ in an aqueous solution containing 10% acetone and Tween 20 (250 µg/mℓ) and the dissolved solution was filled in microsprayer and was applied 5 mℓ per pine tree by foliar spraying. For the soil drenching, acibenzolar-S-methyl was dissolved at concentration level of 0.2 mg/mℓ in an aqueous solution containing 10% acetone and Tween 20 (250 µg/mℓ), and this solution was used for soil drenching in a pot with planted pine tree, 40 mℓ per pine tree. […] [Table 3] The control efficacy of acibenzolar-S-methyl against pine wilt disease by various treatment methods"}, "Antipeptide": {"tested_on": "Antipeptide", "assay": "qRT-PCR expression of induced resistance gene in pine tree callus", "format": "cell-based", "settings": "concentration series"}, "Xyloglucan": {"tested_on": "Xyloglucan", "assay": "qRT-PCR expression of induced resistance gene in pine tree callus", "format": "cell-based", "settings": "concentration series"}, "PR_3 family class 1": {"tested_on": "PR_3 family class 1", "assay": "qRT-PCR expression of induced resistance gene in pine tree callus", "format": "cell-based", "settings": "concentration series, 2 µg/mℓ"}, "Heat shock 70": {"tested_on": "Heat shock 70", "assay": "qRT-PCR expression of induced resistance gene in pine tree callus", "format": "cell-based", "settings": "concentration series, 2 µg/mℓ"}, "[2]": {"settings": "Foliar spraying, 1,600 µg/mℓ, 5 mℓ per tree"}, "[3]": {"settings": "Soil drenching, 200 µg/mℓ, 40 mℓ per tree"}}, "data": [{"smiles": "CSC(=O)c1cccc2nnsc12", "note": "[ASM, acibenzolar-S-methyl]", "values": [{"measurement": "Gene expression level, PR_1b family", "setting": "PR_1b family; 2 µg/mℓ", "value": 1.064}, {"measurement": "Gene expression level, PR_1b family", "setting": "PR_1b family; 20 µg/mℓ", "value": 1.248}, {"measurement": "Control value (%)", "setting": "[1]; [2]", "value": 61, "unit": "%"}, {"measurement": "Disease occurrence rate (%)", "setting": "[1]; [2]", "value": 28, "unit": "%"}, {"measurement": "Control value (%)", "setting": "[1]; [3]", "value": 97, "unit": "%"}, {"measurement": "Disease occurrence rate (%)", "setting": "[1]; [3]", "value": 2, "unit": "%"}, {"measurement": "Control value (%)", "setting": "[1]; Trunk injection, 200 µg/mℓ", "value": 77, "unit": "%"}, {"measurement": "Disease occurrence rate (%)", "setting": "[1]; Trunk injection, 200 µg/mℓ", "value": 16, "unit": "%"}, {"measurement": "Control value (%)", "setting": "[1]; Trunk injection, 10,000 µg/mℓ", "value": 27, "unit": "%"}, {"measurement": "Disease occurrence rate (%)", "setting": "[1]; Trunk injection, 10,000 µg/mℓ", "value": 52, "unit": "%"}, {"measurement": "Gene expression level, Antipeptide", "setting": "Antipeptide; 2 µg/mℓ", "value": 5.816}, {"measurement": "Gene expression level, Antipeptide", "setting": "Antipeptide; 20 µg/mℓ", "value": 7.111}, {"measurement": "Gene expression level, Xyloglucan", "setting": "Xyloglucan; 2 µg/mℓ", "value": 7.013}, {"measurement": "Gene expression level, Xyloglucan", "setting": "Xyloglucan; 20 µg/mℓ", "value": 5.389}, {"measurement": "Gene expression level, PR_3 family class 1", "setting": "PR_3 family class 1", "value": 3.945}, {"measurement": "Gene expression level, Heat shock 70", "setting": "Heat shock 70", "value": 22.47}]}]}
